US9340819B2, “Method for detecting the presence of carbapenemase-producing bacteria in a sample” (priority 2011, dated 2016)
In brackets after ≈: the same amount, converted by molar mass.

Assays:
K. pneumoniae = test: MIC of carbapenem by Etest (Example 2); format: cell-based, Klebsiella pneumoniae
Method: (§1) All strains had previously been characterized for their β-lactamase content at the molecular level. Minimum inhibitory concentration of carbapenem were determined using the Etest® (AB bioMérieux, Solna, Sweden) and results were recorded according to US guidelines (CLSI), as updated in 2011.

E. coli = test: MIC of carbapenem by Etest (Example 2); format: cell-based, Escherichia coli
Method: as §1

E. cloacae = test: MIC of carbapenem by Etest (Example 2); format: cell-based, Enterobacter cloacae
Method: as §1

E. aerogenes = test: MIC of carbapenem by Etest (Example 2); format: cell-based, Enterobacter aerogenes
Method: as §1

C. freundii = test: MIC of carbapenem by Etest (Example 2); format: cell-based, Citrobacter freundii
Method: as §1

S. marcescens = test: MIC of carbapenem by Etest (Example 2); format: cell-based, Serratia marcescens
Method: as §1

E. sakazaki = test: MIC of carbapenem by Etest (Example 2); format: cell-based; settings: ESBL + decreased membrane permeability; E. sakazaki CTX-M-15, n=1
Method: as §1

K. ozonae = test: MIC of carbapenem by Etest (Example 2); format: cell-based; settings: K. ozonae KPC-3, n=1
Method: as §1

Salmonella spp. = test: MIC of carbapenem by Etest (Example 2); format: cell-based; settings: Salmonella spp. KPC-2, n=1
Method: as §1

E. asburiae = test: MIC of carbapenem by Etest (Example 2); format: cell-based, Enterobacter asburiae; settings: E. asburiae IMI-2, n=1
Method: as §1

P. stuartii = test: MIC of carbapenem by Etest (Example 2); format: cell-based, Providencia stuartii; settings: P. stuartii NDM-1, n=1
Method: as §1

P. rettgeri = test: MIC of carbapenem by Etest (Example 2); format: cell-based, Proteus rettgeri
Method: as §1

P. mirabilis = test: MIC of carbapenem by Etest (Example 2); format: cell-based, Proteus mirabilis; settings: Plasmid mediated AmpC or chromosomal AmpC + decreased membrane permeability; P. mirabilis ACC-1, n=1
Method: as §1

M. morganii = test: MIC of carbapenem by Etest (Example 2); format: cell-based, Morganella morganii; settings: Plasmid mediated AmpC or chromosomal AmpC + decreased membrane permeability; M. morganii Overexpressed cephalosporinase, n=2
Method: as §1

P. fluorescens = test: Susceptibility testing by Etest on Mueller-Hinton agar (Example 3); format: cell-based; settings: Pseudomonas fluorescens
Method: (§2) Susceptibility testing was performed using the Etest® (bioMérieux; La Balmes-les-Grottes, France) on Mueller-Hinton agar plates (Becton Dickinson, Le Pont de Chaix, France) at 37° C. and results were recorded according to US guidelines (CLSI), as updated in 2012. The breakpoints for imipenem, meropenem and doripenem are as follows; susceptibility (S)≦2, and resistance (R)≧8 μg/ml.

P. putida = test: as above; format: cell-based; settings: Pseudomonas putida
Method: as §2

P. stutzeri = test: as above; format: cell-based; settings: Stutzerimonas stutzeri
Method: as §2

C[C@@H](O)[C@H]1C(=O)N2C(C(=O)O)=C(S[C@@H]3CN[C@H](C(=O)N(C)C)C3)[C@H](C)[C@H]12 [MER, meropenem]
MICs range (K. pneumoniae; ESBL + decreased membrane permeability, K. pneumoniae SHV-2a, n=1): 0.38 mg/L
MICs range (K. pneumoniae; ESBL + decreased membrane permeability, K. pneumoniae SHV-28, n=1): 1 mg/L
MICs range (K. pneumoniae; ESBLs, K. pneumoniae CTX-M-3, n=1): 0.12 mg/L
MICs range (K. pneumoniae; ESBLs, K. pneumoniae CTX-M-14, n=1): 0.12 mg/L
MICs range (K. pneumoniae; ESBLs, K. pneumoniae CTX-M-15, n=3): 0.12 mg/L
MICs range (K. pneumoniae; K. pneumoniae IMP-1, n=5): 1 to 8 mg/L
MICs range (K. pneumoniae; K. pneumoniae IMP-8, n=2): 0.5 mg/L
MICs range (K. pneumoniae; K. pneumoniae KPC-3, n=3): 1 to 8 mg/L
MICs range (K. pneumoniae; K. pneumoniae NDM-4, n=1): >32 mg/L
MICs range (K. pneumoniae; K. pneumoniae OXA-181, n=2): 0.5 to 1 mg/L
MICs range (K. pneumoniae; K. pneumoniae VIM-19, n=1): 4 mg/L
MICs range (K. pneumoniae; Plasmid mediated AmpC or chromosomal AmpC + decreased membrane permeability, K. pneumoniae DHA-1, n=1): >32 mg/L
MICs range (K. pneumoniae; Plasmid mediated AmpC or chromosomal AmpC + decreased membrane permeability, K. pneumoniae DHA-2, n=1): 0.12 mg/L
MICs range (E. coli; E. coli IMP-1, n=2): 0.5 to 1 mg/L
MICs range (E. coli; E. coli IMP-8, n=1): 3 mg/L
MICs range (E. coli; E. coli KPC-2, n=5): 0.5 to 2 mg/L
MICs range (E. coli; E. coli NDM-1, n=7): 1 to 16 mg/L
MICs range (E. coli; E. coli OXA-48, n=6): 0.12 to 1 mg/L
MICs range (E. coli; E. coli VIM-1, n=2): 0.5 to 1 mg/L
MICs range (E. coli; E. coli VIM-2, n=2): 0.38 to 0.5 mg/L
MICs range (E. coli; E. coli VIM-19, n=1): 4 mg/L
MICs range (E. coli; ESBLs, E. coli CTX-M-1, n=1): 0.12 mg/L
MICs range (E. coli; ESBLs, E. coli CTX-M-3, n=1): 0.12 mg/L
MICs range (E. coli; ESBLs, E. coli CTX-M-14, n=2): 0.12 mg/L
MICs range (E. coli; ESBLs, E. coli CTX-M-15, n=2): 0.12 mg/L
MICs range (E. coli; ESBLs, E. coli VEB-1, n=1): 0.12 mg/L
MICs range (E. coli; Plasmid mediated AmpC or chromosomal AmpC + decreased membrane permeability, E. coli ACC-1, n=1): 0.12 mg/L
MICs range (E. coli; Plasmid mediated AmpC or chromosomal AmpC + decreased membrane permeability, E. coli CMY-2, n=1): 0.12 mg/L
MICs range (E. coli; Plasmid mediated AmpC or chromosomal AmpC + decreased membrane permeability, E. coli CMY-10, n=1): 0.12 mg/L
MICs range (E. coli; Plasmid mediated AmpC or chromosomal AmpC + decreased membrane permeability, E. coli DHA-1, n=1): 0.12 mg/L
MICs range (E. coli; Plasmid mediated AmpC or chromosomal AmpC + decreased membrane permeability, E. coli Extended spectrum cephalosporinase, n=1): 0.12 mg/L
MICs range (E. coli; Plasmid mediated AmpC or chromosomal AmpC + decreased membrane permeability, E. coli Overexpressed cephalosporinase, n=1): 2 mg/L
MICs range (E. cloacae; E. cloacae GES-5, n=1): >32 mg/L
MICs range (E. cloacae; E. cloacae IMP-8, n=2): 0.5 to 1 mg/L
MICs range (E. cloacae; E. cloacae KPC-2, n=7): 0.75 to 16 mg/L
MICs range (E. cloacae; E. cloacae NDM-1, n=1): 2 mg/L
MICs range (E. cloacae; E. cloacae NMC-A, n=1): 16 mg/L
MICs range (E. cloacae; E. cloacae OXA-48, n=3): 0.5 to 1.5 mg/L
MICs range (E. cloacae; ESBLs, E. cloacae CTX-M-15, n=3): 0.12 mg/L
MICs range (E. cloacae; ESBLs, E. cloacae VEB-1, n=1): 0.12 mg/L
MICs range (E. aerogenes; E. aerogenes KPC-2, n=1): 8 mg/L
MICs range (E. aerogenes; Plasmid mediated AmpC or chromosomal AmpC + decreased membrane permeability, E. aerogenes Overexpressed cephalosporinase, n=1): 0.75 mg/L
MICs range (C. freundii; C. freundii KPC-2, n=2): 1.5 to 3 mg/L
MICs range (C. freundii; C. freundii NDM-1, n=1): >32 mg/L
MICs range (C. freundii; ESBL + decreased membrane permeability, C. freundii TEM-3, n=1): 1 mg/L
MICs range (S. marcescens; S. marcescens IMP-11, n=1): 2 mg/L
MICs range (S. marcescens; S. marcescens KPC-2, n=2): >32 mg/L
MICs range (S. marcescens; S. marcescens SME-1, n=1): 12 mg/L
MICs range (S. marcescens; S. marcescens SME-2, n=1): 12 mg/L
MICs range (S. marcescens; S. marcescens VIM-2, n=1): >32 mg/L
MICs range (E. sakazaki): 0.25 mg/L
MICs range (K. ozonae): 2 mg/L
MICs range (Salmonella spp.): 0.25 mg/L
MICs range (E. asburiae): >32 mg/L
MICs range (P. stuartii): 1.5 mg/L
MICs range (P. rettgeri; P. rettgeri NDM-1, n=1): 1.5 mg/L
MICs range (P. rettgeri; P. rettgeri OXA-181, n=1): 2 mg/L
MICs range (P. mirabilis): 0.12 mg/L
MICs range (M. morganii): 0.5 mg/L
MIC (P. fluorescens; P. fluorescens COU, VIM-2): > 32 ng/mL
MIC (P. fluorescens; P. fluorescens, BIC-1): 4 ng/mL (≈ 0.0104 µM)
MIC (P. putida; CIP55, P. putida CIP 55-5, wild type, none): 3 ng/mL (≈ 0.00782 µM)
MIC (P. putida; P. putida 9335, VIM-2): > 32 ng/mL
MIC (P. putida; P. putida NTU 91/99, VIM-2): > 32 ng/mL
MIC (P. putida; P. putida NTU 92/99, IMP-1): 0.19 ng/mL (≈ 0.000495 µM)
MIC (P. stutzeri; P. stutzeri 13, DIM-1): > 32 ng/mL
MIC (P. stutzeri; P. stutzeri P511503100, VIM-2): > 32 ng/mL
MIC (P. stutzeri; P. stutzeri PB207, IMP-1): 4 ng/mL (≈ 0.0104 µM)
